Measured values taken from ChEMBL document CHEMBL3817834, “Scaffold morphing leading to evolution of 2,4-diaminoquinolines and aminopyrazolopyrimidines as inhibitors of the ATP synthesis pathway” (Medchemcomm, 2016).
≈ marks a conversion by molar mass, not a printed value. Calls of active or inactive are those of the source. No cut-off for these calls is given here.

How the values were obtained:
[1] = system: Mycobacterium tuberculosis; test: Antimycobacterial activity against drug sensitive Mycobacterium tuberculosis Erdman by turbidometric method; type: functional; conditions: Erdman = ATCC 35801
[2] = system: Mycobacterium tuberculosis; test: Antimycobacterial activity against drug sensitive Mycobacterium tuberculosis Harlingen by turbidometric method; type: functional
[3] = system: Mycobacterium tuberculosis; test: Antimycobacterial activity against drug sensitive Mycobacterium tuberculosis isolate 25618 by turbidometric method; type: functional
[4] = system: Mycobacterium tuberculosis; test: Antimycobacterial activity against drug sensitive Mycobacterium tuberculosis ATCC 27294 by turbidometric method; type: functional
[5] = system: Mycobacterium tuberculosis; test: Antimycobacterial activity against drug sensitive Mycobacterium tuberculosis Beijing (E-47/94) by turbidometric method; type: functional
[6] = Selectivity index, ratio of IC50 for bovine heart mitochondrial ATP synthase to IC50 for ATP synthase in Mycobacterium smegmatis inverted membrane vesicles
[7] = Ratio of IC50 for ATP synthase in Mycobacterium smegmatis inverted membrane vesicles to IC50 for Mycobacterium bovis BCG
[8] = system: Mycobacterium tuberculosis; test: Bactericidal activity against Mycobacterium tuberculosis under hypoxic condition after 7 days by microdilution method; type: functional; conditions: 168 h
[9] = system: Mycobacterium tuberculosis; test: Bactericidal activity against Mycobacterium tuberculosis under aerobic condition after 7 days by microdilution method; type: functional; conditions: 168 h
[10] = system: Mycobacterium tuberculosis; test: Antimycobacterial activity against Mycobacterium tuberculosis under aerobic condition after 7 days by microdilution method; type: functional; conditions: 168 h
[11] = Inhibition of ATP synthase in Mycobacterium smegmatis inverted membrane vesicles assessed as reduction in oxidative phosphorylation of ADP incubated for 60 mins in presence of NADH by luciferin/luciferase coupled […] assay; set-up: species or system Mycolicibacterium smegmatis
[12] = system: Mycobacterium tuberculosis; test: Ratio of MBC for Mycobacterium tuberculosis under hypoxic condition to MIC for Mycobacterium tuberculosis under aerobic condition; type: functional
[13] = system: Mycobacterium tuberculosis; test: Antimycobacterial activity against Mycobacterium tuberculosis H37Rv infected in Balb/c mouse assessed as log reduction in CFU in lungs at 10 mg/kg, po qd dosed 6 days per week for 2 weeks; type: functional
[14] = system: Mycobacterium tuberculosis; test: Antimycobacterial activity against Mycobacterium tuberculosis H37Rv infected in Balb/c mouse assessed as reduction in CFU in lungs at 100 to 200 mg/kg, po qd dosed 6 days per week for 2 weeks; type: functional, organism-based
[15] = system: Mycobacterium tuberculosis; test: Bactericidal activity against Mycobacterium tuberculosis under replicating condition assessed as reduction in colony forming units at 3.125 to 200 uM by time kill kinetic study; type: functional, organism-based; conditions: TDE = time-dependent effect
Mus musculus = test: T>MIC in Mycobacterium tuberculosis H37Rv infected Balb/c mouse at 100 to 200 mg/kg, po qd dosed 6 days per week for 2 weeks by LC-MS analysis
[16] = Inhibition of bovine heart mitochondrial ATP synthase assessed as reduction in oxidative phosphorylation of ADP in presence of NADH by ATP bioluminescence assay; set-up: species or system Bos taurus

| Structure (SMILES) | MIC80 [1] | MIC80 [2] | MIC80 [3] | MIC80 [4] | MIC80 [5] | Ratio IC50 [6] | MBC [8] | MBC [9] | MIC [10] | IC50 [11] | other results |
| --- | --- | --- | --- | --- | --- | --- | --- | --- | --- | --- | --- |
| CC1COc2c(N3CCN(C)CC3)c(F)cc3c(=O)c(C(=O)O)cn1c23 (stereo not given) [OFLOXACIN] | 0.7 µM (≈ 0.253 µg/mL) | 0.7 µM (≈ 0.253 µg/mL) | 0.7 µM (≈ 0.253 µg/mL) | 0.7 µM (≈ 0.253 µg/mL) | 0.7 µM (≈ 0.253 µg/mL) |  |  |  |  |  |  |
| COc1cc2nc(N3CCC(c4ccccc4Cl)C3)cc(Nc3cnc(OCCN(C)C)c(F)c3)c2cc1OC (stereo not given) | 3.1 µM (≈ 1.75 µg/mL) | 3.1 µM (≈ 1.75 µg/mL) | 3.1 µM (≈ 1.75 µg/mL) | 6.3 µM (≈ 3.57 µg/mL) | 3.1 µM (≈ 1.75 µg/mL) | 128 | 200 µM (≈ 113 µg/mL) | 54 µM (≈ 30.6 µg/mL) | 1.6 µM (≈ 0.906 µg/mL) | 40 nM | Ratio IC50 [7]: 100 |
| CO[C@H]1/C=C/O[C@@]2(C)Oc3c(C)c(O)c4c(O)c(c(/C=N/N5CCN(C)CC5)c(O)c4c3C2=O)NC(=O)/C(C)=C\C=C\[C@H](C)[C@H](O)[C@@H](C)[C@@H](O)[C@@H](C)[C@H](OC(C)=O)[C@@H]1C [RIFAMPIN] | 0.04 µM (≈ 0.0329 µg/mL) | 0.04 µM (≈ 0.0329 µg/mL) | 0.04 µM (≈ 0.0329 µg/mL) | 0.04 µM (≈ 0.0329 µg/mL) | 0.04 µM (≈ 0.0329 µg/mL) |  |  |  |  |  |  |
| COc1cc2nc(N3CCC(c4ccccc4Cl)C3)cc(Nc3cnc(NCCN(C)C)c(F)c3)c2cc1OC (stereo not given) |  |  |  |  |  | 51 |  |  | 1.6 µM (≈ 0.904 µg/mL) | 100 nM |  |
| CCOc1ncc(Nc2nc(OCCC3CCOCC3)nc3cc(OC)c(OC)cc23)cc1F |  |  |  |  |  |  |  |  | > 200 µM | 25000 nM |  |
| CCOc1ncc(Nc2nc(NCCC3CCOCC3)nc3cc(OC)c(OC)cc23)cc1F |  |  |  |  |  | 2.3 | 3 µM (≈ 1.41 µg/mL) | 19 µM (≈ 8.96 µg/mL) | 1.9 µM (≈ 0.896 µg/mL) | 600 nM | Ratio [12]: 15 |
| COc1nc2ccc(Br)cc2cc1[C@@H](c1ccccc1)[C@@](O)(CCN(C)C)c1cccc2ccccc12 [BEDAQUILINE] | < 2 µM | < 2 µM | < 2 µM | 0.2 µM (≈ 0.111 µg/mL) | < 2 µM |  | 4 µM (≈ 2.22 µg/mL) | 1.6 µM (≈ 0.889 µg/mL) | 0.2 µM (≈ 0.111 µg/mL) | 5 nM | Ratio [12]: 15; Ratio IC50 [7]: 100 |
| N#CC(C#N)=NNc1cccc(Cl)c1 [CARBONYL CYANIDE M-CHLOROPHENYLHYDRAZONE] |  |  |  |  |  |  |  |  |  | 4800 nM |  |
| NNC(=O)c1ccncc1 [ISONIAZID] | 0.2 µM (≈ 0.0274 µg/mL) | 0.2 µM (≈ 0.0274 µg/mL) | 0.2 µM (≈ 0.0274 µg/mL) | 0.2 µM (≈ 0.0274 µg/mL) | 0.2 µM (≈ 0.0274 µg/mL) |  |  |  |  |  | Activity [13]: >2 deltalog10CFU |
| COc1cc2nc(N3CCC(c4ccccc4Cl)C3)cc(Nc3cnc(OCC4CCCN4C)c(F)c3)c2cc1OC (stereo not given) |  |  |  |  |  | 44 | 50 µM (≈ 29.6 µg/mL) | 50 µM (≈ 29.6 µg/mL) | 6.2 µM (≈ 3.67 µg/mL) | 60 nM | Ratio [12]: 15 |
| Cn1nc(Nc2nc(NCCC3CCOCC3)nc3ccccc23)cc1C(C)(C)C |  |  |  |  |  | 4.5 |  |  | 6.2 µM (≈ 2.53 µg/mL) | 1700 nM |  |
| CN(C)CCOc1ncc(Nc2cc(-c3ccccc3)nc3cc(-c4ccc(F)cc4)nn23)cc1F | 6.3 µM (≈ 3.07 µg/mL) | 6.3 µM (≈ 3.07 µg/mL) | 6.3 µM (≈ 3.07 µg/mL) | 6.3 µM (≈ 3.07 µg/mL) | 6.3 µM (≈ 3.07 µg/mL) | 20 | 100 µM (≈ 48.7 µg/mL) | 28 µM (≈ 13.6 µg/mL) | 6.2 µM (≈ 3.02 µg/mL) | 450 nM | Activity [14]: Active; Ratio [12]: 15; Activity [15]: tde; Ratio IC50 [7]: 100; T>MIC (Mus musculus): 24 h |
| CN[C@@H]1[C@H](O[C@H]2[C@H](O[C@H]3[C@H](O)[C@@H](O)[C@H](N=C(N)N)[C@@H](O)[C@@H]3N=C(N)N)O[C@@H](C)[C@]2(O)C=O)O[C@@H](CO)[C@H](O)[C@H]1O [STREPTOMYCIN] | 0.3 µM (≈ 0.174 µg/mL) | 0.3 µM (≈ 0.174 µg/mL) | 0.3 µM (≈ 0.174 µg/mL) | 0.3 µM (≈ 0.174 µg/mL) | 0.3 µM (≈ 0.174 µg/mL) |  |  |  |  |  |  |
| COc1cc2nc(NCCC3CCOCC3)cc(Nc3cnc(OCCN(C)C)c(F)c3)c2cc1OC |  |  |  |  |  | 1 |  |  | 200 µM (≈ 103 µg/mL) | 3700 nM |  |
| COc1cc2nc(NCCC3CCOCC3)nc(Nc3cc(C(C)(C)C)n(C)n3)c2cc1OC |  |  |  |  |  | 52 | 50 µM (≈ 23.4 µg/mL) | 25 µM (≈ 11.7 µg/mL) | 6.2 µM (≈ 2.91 µg/mL) | 100 nM | Ratio [12]: 15; Ratio IC50 [7]: 100 |
| CC[C@@H](CO)NCCN[C@@H](CC)CO [ETHAMBUTOL] | 9.8 µM (≈ 2 µg/mL) | 9.8 µM (≈ 2 µg/mL) | 9.8 µM (≈ 2 µg/mL) | 9.8 µM (≈ 2 µg/mL) | 9.8 µM (≈ 2 µg/mL) |  |  |  |  |  |  |
| COc1cc2nc(NCCC3CCOCC3)nc(Nc3cnc(OC)c(C)c3)c2cc1OC |  |  |  |  |  | 10 | 13 µM (≈ 5.9 µg/mL) | 25 µM (≈ 11.3 µg/mL) | 3.1 µM (≈ 1.41 µg/mL) | 400 nM | Ratio [12]: 15 |
| CC(Nc1nc(N2CCCCC2)nc2ccccc12)c1ccccc1 (stereo not given) |  |  |  |  |  | 2.6 |  |  | 25 µM (≈ 8.31 µg/mL) | 2100 nM | IC50 [16]: 2600 nM |
| CCOc1ncc(Nc2cc(NCCC3CCOCC3)nc3ccnn23)cc1F |  |  |  |  |  | > 1.2 |  |  | > 50 µM | 21000 nM |  |
| CN(C)CCOc1ncc(Nc2cc(C(F)(F)F)nc3cc(-c4ccc(F)cc4)nn23)cc1F |  |  |  |  |  | 19 |  |  | 12.5 µM (≈ 5.98 µg/mL) | 500 nM | Ratio IC50 [7]: 100 |
| CN(C)CCOc1ncc(Nc2cc(-c3ccccc3)nc3cc(-c4ccc(F)cc4)[nH]c23)cc1F | 3.1 µM (≈ 1.51 µg/mL) | 3.1 µM (≈ 1.51 µg/mL) | 3.1 µM (≈ 1.51 µg/mL) | 3.1 µM (≈ 1.51 µg/mL) | 3.1 µM (≈ 1.51 µg/mL) | 13 |  |  | 0.8 µM (≈ 0.388 µg/mL) | 100 nM | Ratio IC50 [7]: 100 |
| CC(Nc1nc(N2CCCC2)nc2ccccc12)c1ccccc1 (stereo not given) |  |  |  |  |  | < 0.04 |  |  | 50 µM (≈ 15.9 µg/mL) | 2500 nM |  |
| CCOc1ncc(Nc2cc(NCCC3CCOCC3)nc3cc(OC)c(OC)cc23)cc1F |  |  |  |  |  | 3.2 |  |  | 6.2 µM (≈ 2.92 µg/mL) | 800 nM | Ratio IC50 [7]: 100 |
| COc1cc2nc(NCCc3cccnc3)nc(Nc3cnc(OC)c(C)c3)c2cc1OC |  |  |  |  |  | 96 |  |  | > 200 µM | 100 nM |  |
| COc1cc2nc(NCCc3ccccc3Cl)cc(Nc3cnc(OCCN(C)C)c(F)c3)c2cc1OC |  |  |  |  |  | 79 |  |  | 3.1 µM (≈ 1.67 µg/mL) | 60 nM |  |
| COc1cc2nc(NCCC3CCOCC3)nc(Nc3cnc(OCCN(C)C)c(F)c3)c2cc1OC |  |  |  |  |  | > 28 |  |  | 25 µM (≈ 12.9 µg/mL) | 900 nM | IC50 [16]: > 25000 nM |
| COc1cc2nc(NCCC3CCOCC3)nc(Nc3ncc(C(C)C)s3)c2cc1OC |  |  |  |  |  |  | 50 µM (≈ 22.9 µg/mL) | 25 µM (≈ 11.4 µg/mL) | 6.2 µM (≈ 2.84 µg/mL) | 100 nM | Ratio [12]: 15 |
| CN(C)CCOc1ncc(Nc2cc(N3CCC(c4ccccc4Cl)C3)nc3cc(F)c(F)cc23)cc1F (stereo not given) | 3.1 µM (≈ 1.68 µg/mL) | 3.1 µM (≈ 1.68 µg/mL) | 3.1 µM (≈ 1.68 µg/mL) | 3.1 µM (≈ 1.68 µg/mL) | 3.1 µM (≈ 1.68 µg/mL) | 19 | 50 µM (≈ 27.1 µg/mL) | 38 µM (≈ 20.6 µg/mL) | 3.1 µM (≈ 1.68 µg/mL) | 100 nM | Activity [14]: Active; Ratio [12]: 15; Ratio IC50 [7]: 100 |
